# Results taken from PubChem BioAssay AID1996.
# Details: buffer; pH 7.4; 200.0 µM
row,solubility kinetic [µg/mL],Structure (SMILES)
1,> 47.2,NC(=O)c1ccc(NC(=O)COC(=O)C2CC3C=CC2C3)cc1 (stereo not drawn)
2,> 42.5,Cc1ccc(C(=O)NCCNC(=O)c2ccccn2)cc1
3,> 44.8,O=C(O)CSc1nc2ccccc2n1Cc1ccccc1
4,> 48.5,CC(C)c1ccc(NC2CCCN(C(=O)c3cccnc3)C2)cc1 (stereo not drawn)
5,0.9,CCn1c(=O)c2ccccc2n(Cc2cccc([N+](=O)[O-])c2)c1=O
6,> 37.6,Cn1nccc1NC(=O)Nc1ccc(Cl)cc1
7,> 45.7,CCOc1ccc(C(=O)NC(C(=O)N2CCC2)C(C)C)cc1 (stereo not drawn)
8,> 36.8,Cc1ccnc(NC(=O)Cc2ccc(F)cc2)n1
9,0.9,O=C(CSc1ccc([N+](=O)[O-])cn1)Nc1ccc(N2CCOCC2)cc1
10,> 51.2,CCOc1ccc(NC(=O)C(CC(=O)O)Cc2ccc(C)cc2)cc1 (stereo not drawn)
11,20.2,O=C(NCC1CCCCC1)c1cccc([N+](=O)[O-])c1
12,22.9,COc1ccc(CCC(=O)OCC(=O)Nc2sccc2C#N)cc1
13,> 45.7,CC(Sc1nccn1C)C(=O)Nc1ccc(C(N)=O)cc1 (stereo not drawn)
14,26.7,COc1ccc(C2(CNC(=O)c3ccc(N)cc3)CCCC2)cc1
15,35.1,CCOC(=O)Nc1cccnc1Sc1ccc(Cl)cc1
16,> 44,O=C(COC(=O)Cc1ccsc1)Nc1cccc(F)c1
17,40.5,O=C(Cc1cccs1)NCCc1ccc(Cl)cc1
18,3.3,Cc1cccc(N2CCN(C(=O)Cc3ccccc3[N+](=O)[O-])CC2)c1C
19,6.1,Cc1cc(Br)cc(C=Nc2ccc(N3CCOCC3)cc2)c1O
20,45.6,CCOC(=O)N1CCN(S(=O)(=O)c2ccc3[nH]c(=O)oc3c2)CC1
21,6.6,O=C(CCSc1ccccc1)Nc1ccccc1Br
22,> 61.4,O=C(CN1CCN(Cc2ccc3c(c2)OCO3)CC1)Nc1ccc2[nH]c(=O)[nH]c2c1
23,4.9,Cc1ccc(OCc2nc(C#N)c(N3CCCCC3)o2)cc1
24,1.4,O=C(CSc1nccc(-c2cccs2)n1)Nc1ccc(F)c(Cl)c1
25,40,CCC(=O)Nc1ccc(CCC(=O)N2CCCC2)cc1

# The next lines start with the compound.
row,Structure (SMILES),solubility kinetic [µg/mL]
1,Clc1ccc(-c2cn3ccccc3n2)cc1,2.5
2,CCN1C(=O)/C(=C\c2cccc(OC(=O)c3ccco3)c2)SC1=S,< 0.8
3,CN=C1S/C(=C\c2ccc(O)c(OC)c2)C(=O)N1C,5.9
4,Nc1ncnc2nc[nH]c12,> 20.3
5,COc1ccccc1C(=O)NCCSCc1c(F)cccc1Cl,13.6
6,Cc1cc(C)nc(SCC(=O)Nc2nccs2)n1,> 42.1
7,CN(C)/C(=N\S(=O)(=O)c1ccc(Cl)cc1)c1ccc(F)cc1,> 51.1
8,CCOC(=O)Cc1csc(NC(=O)Nc2cccs2)n1,18.4
9,CCOC(=O)C1CCN(c2c(NCCC(C)C)c(=O)c2=O)CC1,> 48.4
10,O=C1c2ccccc2CN1C(CO)c1ccccc1 (stereo not drawn),34.7
11,C=CCNC(=O)COC(=O)c1c2c(nc3ccccc13)CCC2,40.9
12,Cc1cc(C)cc(C(=O)OCC(=O)Nc2ncccn2)c1,37.4
13,Clc1cc2nc(-c3cccnc3Cl)[nH]c2cc1Cl,0.8
14,CCOC(=O)C1CCN(C(=O)COC(=O)/C=C/c2cccc(OC)c2OC)CC1,60.5
15,Cc1cc(C)c2nc(C)cc(Nc3ccc(C(=O)NCCO)cc3)c2c1,35.5
16,O=C(NC1CCCc2ccccc21)c1cn2ccccc2n1 (stereo not drawn),39.7
17,COc1cccc(CNC(=S)NC2CC2)c1,35.2
18,COCc1ccc(CN2CCC(CO)(CC3CCCCO3)CC2)o1 (stereo not drawn),> 50.6
19,CC(C)(C)NC(=O)c1ccc(COc2ccc(Cl)cc2Cl)o1,5
20,CC12CS(=O)(=O)CC1SC(=S)N2Cc1ccccc1 (stereo not drawn),44.2
21,N#CC1=C(S)N(c2ccc(F)cc2)C2(CCCCC2)NC1=O,> 47.6
22,CCN(CC)Cc1nc2c(c(=O)[nH]1)C(CC)(CC)Cc1ccccc1-2,1.7
23,Cc1nc2ncnn2c(C)c1Cc1cccc(C(F)(F)F)c1,> 45.9
